# In a melting point compilation (Tetko et al.; mined from patent text by program, amines drawn as free bases though some values may be those of a salt):
# Residues, ends and D or L forms follow the SMILES beside them. *: point of attachment. Boc = CC(C)(C)OC(=O)*; OBn = c1ccc(CO*)cc1; βAla = NCCC(=O)O
row,melting point,Structure (SMILES)
1,132 to 134 °C,CCOC(=O)C(CO)NC(=O)C(CC(=O)OCc1ccccc1)NC(=O)CCNC(=O)OC(C)(C)C (stereo unspecified) ({Boc-βAla}-Asp(OBn)-Ser-OEt; configuration not given here)
2,232 to 234 °C,COc1cc(OC)n2nc(S(=O)(=O)Nc3c(Cl)cccc3Cl)nc2n1
3,89 to 90 °C,COc1ccc(-c2cnc(N)c(Sc3ccccc3)n2)cc1
4,229 to 231 °C,CCn1ncc2c3[nH]nc4c3c(nc21)CCc1ccccc1-4
5,151 to 153 °C,O=C1c2ccccc2C(=O)N1CCn1ccnc1
6,116 to 120 °C,OCCNc1nc(N2CCNCC2)nc2c1SCCC2
7,123 to 126 °C,COC(=O)CCCc1cc2cc(Cl)ccc2n1S(=O)(=O)c1cccc2nsnc12
8,216 to 220 °C,C=C(c1cncn1Cc1ccccc1)C(c1ccc(C)cc1)c1ccc(C)cc1
9,160 to 163 °C,COc1ccccc1N1CCN(CC(C(=O)O)c2ccccc2)CC1 (stereo unspecified)
10,211 to 218 °C,O=S1(=O)N=CN(CCF)c2ccc(Cl)cc21
11,87 to 89 °C,CCCCCCCNCCCCCCCCSc1nc(-c2ccccc2)c(-c2ccccc2)[nH]1
12,92 to 94 °C,Cc1ccc(F)c(C2CC(=O)c3c(C)ccnc3C2)c1 (stereo unspecified)
13,144 to 146 °C,COC(=O)c1ccc(Oc2ccc(N)cc2C(=O)OC)cc1
14,126 to 127 °C,Cn1c(=O)ccc2cc(COc3cc(F)cc(C4CCOCC4)c3)ccc21
15,147 to 148 °C,N#Cc1c[nH]cc1-c1ccc(Cl)cc1
16,110 to 113 °C,CC(Sc1cc(C(C)(C)C)c(O)c(C(C)(C)C)c1)C(=O)O (stereo unspecified)
17,387 to 392 °C,O=C(O)c1ccc2nc3sc(-c4ccccc4)cc3c(=O)n2c1
18,237 to 238 °C,Nc1nc2ccccc2c2c1nc(CCO)n2CC1(O)CCOCC1
19,147 °C,O=C(O)CSc1cc(=Nc2ccccc2)ss1
20,100 to 103 °C,O=C(CN1C(=O)C2(COc3ccc(Br)cc32)c2ccccc21)Nc1ccccc1F (stereo unspecified)
21,214 °C,COc1ccc(C(OCC2OC(n3cc(C)c(=O)[nH]c3=O)CC2O[Si](C)(C)C(C)(C)C)(c2ccccc2)c2ccc(OC)cc2)cc1 (stereo unspecified)
22,168 to 170 °C,COc1ccc2c(c1)c(OC(C)C)c(C(=O)Nc1ccccc1O)n2-c1ccccc1
23,82 °C,O=c1oc(C(F)F)nc2c(C(F)(F)F)cccc12
24,155 to 175 °C,OC(CNC(c1ccccc1)C(O)c1ccccc1)CNC(c1ccccc1)C(O)c1ccccc1 (stereo unspecified)
25,140 to 142 °C,Cc1nc[nH]c(=O)c1Cc1ccccc1

row,melting point,Structure (SMILES)
1,199 to 200 °C,COC(=O)[C@H](Cc1cncn1C)NC(=O)C(Cc1cccc2ccccc12)Cc1cccc2ccccc12
2,70 °C,CC(=O)OCC1CCc2c(C3=C(c4cn(C)c5ccccc45)C(=O)OC3=O)c3ccccc3n2CC1 (stereo unspecified)
3,95 to 97 °C,C=CCN(C(C)C)C(C)CC1=C(c2ccc(OC)cc2)CCCNC1=O (stereo unspecified)
4,87 to 89 °C,CN(Cc1ccccc1)C(=O)Cn1c(-c2ccc(Cl)cc2)nc2cccnc21
5,228 to 230 °C,CCn1nc2c(N)nc3ccccc3c2c1CC1(F)CCN(C(C)=O)CC1
6,201 to 204 °C,Cc1c(-c2ncc(Cl)cc2F)nn(C)c1C(N)=O
7,137 °C,CCCCCCCNC(=O)Nc1cccc(-c2ccc(C=C(OC)C(=O)O)cc2OCCCC)c1
8,279 to 280 °C,Cc1[nH]c2ccccc2c1[C@H]1CC[C@@H](N2CCN(c3cccc4[nH]ccc34)CC2)CC1
9,200 to 202 °C,CC(=O)NC[C@H]1CN(c2ccc(-c3noc(C#N)n3)c(F)c2)C(=O)O1
10,232 to 234 °C,Cc1c(Nc2ncccc2C(=O)O)cccc1C(F)F
11,202 to 203 °C,CS(=O)c1ccc(-n2cnc(-c3ccc(F)cc3)c2-c2ccncc2)cc1 (stereo unspecified)
12,260 °C,O=[N+]([O-])c1ccc(N2CCN(c3ccc(O)cc3)CC2)cc1
13,200 to 201 °C,Cc1ccc(S(=O)(=O)N2Cc3cncnc3-c3ccc(Cl)cc3C2c2ccccc2Cl)cc1 (stereo unspecified)
14,70 °C,CN(C)C(=O)Sc1ccccc1C#N
15,154 to 156 °C,COc1cc(NC(C)CCCN2C(=O)c3ccccc3C2=O)c2nccc(C=Cc3cccc(C(F)(F)F)c3)c2c1 (stereo unspecified)
16,84 to 89 °C,OC(CNC1CCc2ccccc2C1)COc1cccc(C(F)(F)F)c1 (stereo unspecified)
17,215 to 217 °C,CCN(CC)CCNC(=O)c1c(I)ccc2c(=O)c3ccccc3[nH]c12
18,74 °C,COC(=O)c1ccccc1Oc1ccc([N+](=O)[O-])cc1
19,205 to 206 °C,Nc1nc(-c2cc(Cl)ccc2Cl)nc(N2CC=CC2)n1
20,129 to 131 °C,CC1(C2CCCC2)Cc2cc(OCC#N)c(Cl)c(Cl)c2C1=O (stereo unspecified)
21,84.5 to 86 °C,CCCCCCCCCCCCCCCCC(O)CNCCO (stereo unspecified)
22,125 °C,CCOC(=O)c1cc2cc(F)cc(Br)c2[nH]1
23,195 to 198 °C,CCCCNc1cc(CN)cc(S(N)(=O)=O)c1Oc1ccccc1
24,83 to 85 °C,CN(C)Cc1ccc(CSCCN=CNS(=O)(=O)c2ccccc2)o1
25,126 to 128 °C,Cc1c(CC#N)cc(C(C)(C)C)c(O)c1C

row,melting point,Structure (SMILES)
1,208 to 212 °C,CC(C)(C)c1nc(N)n(-c2c(Cl)cc(C(F)(F)F)cc2Cl)n1
2,140 to 143 °C,Nc1cccc(-c2ccc(CCN3Cc4ccccc4C3)cc2)n1
3,169 °C,COCCOC(=O)C1=C(C)NC(C)=C(C(=O)OCC(F)(F)F)C1c1cccc([N+](=O)[O-])c1 (stereo unspecified)
4,259 to 260 °C,CCCC(=O)NCc1ccc(NC(=O)/C=C/c2cnn(C)c2-c2ccc(F)cc2)cc1
5,223 to 226 °C,NS(=O)(=O)c1cc2[nH]c(Cc3ccccc3Cl)nc2cc1Cl
6,> 280 °C,CS(=O)(=O)c1ccc(-n2nc(C(=O)O)cc2-c2ccc(-c3ccco3)cc2)cc1
7,118 °C,Nc1ncc(-c2ccc3c(c2)CCC(N2CCOCC2)CC3)c(N)n1 (stereo unspecified)
8,> 210 °C,N#Cc1c(N)[nH]c(Br)c1C#N
9,114 °C,Cc1ccc(-c2ncc(C)c(C)n2)cc1
10,136 °C,CCOC(=O)c1cnc2c(-c3cccc(Cl)c3)cnn2c1
11,191 °C,CC(C)[C@H](NC(=O)[C@H](Cc1ccccc1)NC(=O)c1ccccc1)C(=O)O
12,207 to 210 °C,O=C(Nc1cc(C(F)(F)F)c[nH]c1=O)c1ccccc1
13,60 to 61 °C,Cn1ccnc1-c1ccc(/C=C/c2ccccc2F)cc1
14,90 to 92 °C,CN(C)c1ccc(C(=O)C(F)c2cccc(Cl)c2)cc1 (stereo unspecified)
15,77 to 78 °C,COC(=O)CC(=O)NC1CCCCC1
16,117 to 118 °C,COCCNc1cc(Sc2ccc(Cl)cc2)nc(-c2ccc(OC)cc2)n1
17,80 to 81 °C,O=C1c2cccc3c2N(CC3)c2ccccc2N1CC#CCN1CCCC1
18,60 to 61 °C,CCOC(=O)c1ccc(OCCCCCCCc2cc(C)no2)cc1
19,218 to 234 °C,CC(C)(C)C(=O)Nc1nc(O)c2c(n1)NCC(CCC1CCC(C(=O)O)CC1)C2 (stereo unspecified)
20,160 to 162 °C,CCNC(=S)N(C)c1cn(-c2cccnc2)nc1Cl
21,125 to 130 °C,COC(=O)C1=C(C)NC(C)=C(C(=O)OCCCCl)C1c1cccc([N+](=O)[O-])c1 (stereo unspecified)
22,233 to 235 °C,CC(C)n1nc(-c2nc(C(=O)O)c(N)nc2-c2ccccc2)ccc1=O
23,98 to 99 °C,Cc1cc(C2CC2)nc(NN)n1
24,110 to 112 °C,O=C(NCCCCCn1ccnc1)c1ccc(Cl)nc1
25,127 to 128 °C,N[C@H]1CCN(c2ccc3c(C(=O)NCC4CCCCC4)cccc3n2)C1

row,melting point,Structure (SMILES)
1,265 °C,N#Cc1cc2c(cc1C(F)(F)F)[nH]c(=O)c(=O)n2OCc1ccccc1
2,263 to 266 °C,O=c1[nH]c2ncc(-c3ccc(-c4nc[nH]n4)cc3)nc2n1CCC1CCOCC1
3,151 to 152 °C,CCC(=O)Nc1cnc2ccccc2c1Cl
4,133 to 134 °C,COc1ccc(C2(c3ccc(OC)c(OC)c3)CCC(=O)O2)cc1OC
5,145 to 188 °C,O=C(Nc1ccc(C(=O)N2Cc3ccccc3Oc3ccccc32)c(Cl)c1)c1ccccc1-c1ccccc1
6,92 to 95 °C,CCC(=CC(CNC(=O)c1cccnc1O)=NO)C(C)[N+](=O)[O-] (stereo unspecified)
7,134 to 135 °C,CC(C)(C)OC(=O)N1C(=O)O[C@@H](c2ccc(F)cc2)[C@H]1Cc1ccc(C(F)(F)F)o1 (racemic)
8,85.3 to 88.3 °C,NC(=O)CC(=O)NCCCOc1cccc(CN2CCCCC2)c1
9,45 to 47 °C,COC(=O)c1cc(C)nc(C)c1
10,145 to 150 °C,O=Cc1cc2c3ccccc3ccc2c2occc12
11,205 °C,N=C(N)NC(=O)OCCNC(=O)c1ccc2cc(C(=O)NC(=N)N)ccc2c1
12,227 to 229 °C,Cc1ccc(C(=O)Nc2ccc3c(c2NC(=O)c2ccc(C)cc2)C(=O)c2ccccc2C3=O)cc1
13,71 to 73 °C,CS(=O)(=O)NC(=O)CCCC[C@H]1CCSS1
14,237 °C,CC(=O)C1=C(O)C(=C(C)Nc2cccc(S(N)(=O)=O)c2)C(=O)OC1=O
15,134 to 136 °C,CCOC(OCC)c1nc(-c2ccc(Cl)cc2)c(F)c(N=C2C=CC(=O)C=C2)c1Cl
16,192 to 194 °C,COc1cn(-c2cc3c(cc2F)OC(F)(F)C(F)(F)O3)nc(-c2ccnn2-c2ccccc2)c1=O
17,137 to 138 °C,COc1ccc(-c2nc3ccc(CBr)cc3o2)cc1
18,149 to 151 °C,CC(C)(C)OC(=O)N1CC=C(c2ccc3oc(-c4ccc(S(C)(=O)=O)cc4F)nc3c2)CC1
19,108 to 110 °C,CCCc1nn(C)c2c(=O)n(CCOc3ccc(OC(C)(C)C(=O)O)cc3)c(CC)nc12
20,100 °C,CC(CS)C(=O)NC(CCCNC(=N)N)C(=O)O (stereo unspecified)
21,154 to 155 °C,CCSc1c(Cl)c(C(=O)O)c(C(O)=NC)c(Cl)c1SCC
22,66.5 to 67 °C,COC(=O)CCCOc1ccccc1I
23,174 to 176 °C,O=C(NOCCO)c1cc(Cl)c(F)c(F)c1Nc1ccc(I)cc1
24,165 °C,CCOc1ccc2c(c1)n(C1CCOCC1)c(=O)n2S(=O)(=O)c1ccc(C(=O)OC)cc1OC
25,66 to 67 °C,CCOC(=O)Cc1nc2ccccc2n1C

row,Structure (SMILES),melting point
1,C[C@H]1[C@@H](C(C)(C)O)CCN1c1ccc(C#N)cc1C(F)(F)F,98 to 100 °C
